Source: PMC6832219, “Synthesis of Novel Baicalein Amino Acid Derivatives and Biological Evaluation as Neuroprotective Agents” (Molecules, 2019)

Key:
Format in all cases: cell-based
injured SH-SY5Y cells [1] = experiment: Morphological detection of apoptosis using DAPI staining; settings: 6.25, 12.5, and 25 μM, 72 h
Experimental: To further study the mechanism of growth inhibition of compound 8 on injured SH-SY5Y cells, DAPI staining was performed. Injured SH-SY5Y cells were treated with compound 8 at […] concentrations for 72 h. […] When the concentration of the drug increased, the shape of the cells became regular.
SH-SY5Y cells in logarithmic growth phase were seeded in 12-well plates (2.4 × 10^4 cells/well). After incubation for 24 h at 37 °C in a humidified atmosphere with 5% CO2, various concentrations of compound 8 was added to the cultures, and the plate was incubated for further 72 h. After discarding the cell culture medium, washing twice with PBS, and fixing with 4% paraformaldehyde for 10 min, 4′,6-diamidino-2-phenylindole (DAPI, 1 mg/mL, Molecular Probes/Invitrogen Life Technologies, Carlsbad, CA, USA), staining was performed for 5 min in the dark, and nuclear fragments were observed under fluorescence microscope.
Figure 3 Morphological detection of apoptosis using 4′,6-diamidino-2-phenylindole (DAPI) staining (200×) on injured SH-SY5Y cells treated with compound 8, (a) control group, (b) injury group, (c) 6.25 μM, (d) 12.5 μM, and (e) 25 μM.

H9C2 cells = experiment: Toxicity on normal H9C2 cells (MTT assay); settings: read-out: Survival Rate (%)
injured SH-SY5Y cells [2] = experiment: Morphological detection of apoptosis using Giemsa staining; settings: 6.25, 12.5, 25 μM, 72 h
Experimental: SH-SY5Y cells in the logarithmic growth phase were seeded in 12-well plates (1.2 × 10^4 cells/well). After incubation for 24 h at 37 °C with 5% CO2, various concentrations ([…] concentrations) of compound 8 were added to the cultures, and the plate was incubated for a further 72 h. Then, we discarded the cell culture fluid, washed twice with phosphate-buffered saline (PBS), and fixed the cells with cold methanol. The SH-SY5Y cells were stained with 6% Giemsa solution for 5 min, washed with water, and dried. The cell morphological changes were observed under an inverted microscope.
Figure 2 Morphological detection of apoptosis using Giemsa staining (200×) on injured SH-SY5Y cells treated with compound 8: (a) control group, (b) injury group, (c) 6.25 μM, (d) 12.5 μM, and (e) 25 μM.

O=C(NC(Cc1ccccc1)C(=O)Oc1c(O)cc2oc(-c3ccccc3)cc(=O)c2c1O)OCc1ccccc1 (stereo not drawn) [Compound 8, 5,7-dihydroxy-4-oxo-2-phenyl-4H-chromen-6-yl 2-{[(benzyloxy)carbonyl]amino}-3-phenyl-proppanpate]
Nuclear morphology / apoptosis (DAPI staining) (injured SH-SY5Y cells [1]): protects injured SH-SY5Y cells from apoptosis | viability at 100 µM (H9C2 cells): 168% | Nuclear and cytoplasmic morphological changes (Giemsa staining) (injured SH-SY5Y cells [2]): alleviating morphological manifestations of cell damage
